According to article PMC5354900, “Peptide-guided targeting of GPR55 for anti-cancer therapy” (Oncotarget, 2016):
Positions of bridges follow the written chain, without caps; N, C: chain ends. Residues, ends and D or L forms follow the SMILES beside them. *: point of attachment. FITC = O=C1OC2(c3ccc(O)cc3Oc3cc(O)ccc32)c2ccc(NC(=S)*)cc21; Ahx = NCCCCCC(=O)O

Key:
[1] = target: T1, immunoprecipitated HA-GPR55 (Homo sapiens, UniProt Q9Y2T6); assay: FITC-peptide binding to immunoprecipitated HA-GPR55; details: FITC-P1 40 μg/ml (26.8 μM), 2 h at 37°C; three independent experiments in triplicate
T1 construct: expressed in transfected cells; host or cells: HeLa cells, transient transfection; anti-HA immunoprecipitate on beads
T1 sequence (Q9Y2T6 whole entry): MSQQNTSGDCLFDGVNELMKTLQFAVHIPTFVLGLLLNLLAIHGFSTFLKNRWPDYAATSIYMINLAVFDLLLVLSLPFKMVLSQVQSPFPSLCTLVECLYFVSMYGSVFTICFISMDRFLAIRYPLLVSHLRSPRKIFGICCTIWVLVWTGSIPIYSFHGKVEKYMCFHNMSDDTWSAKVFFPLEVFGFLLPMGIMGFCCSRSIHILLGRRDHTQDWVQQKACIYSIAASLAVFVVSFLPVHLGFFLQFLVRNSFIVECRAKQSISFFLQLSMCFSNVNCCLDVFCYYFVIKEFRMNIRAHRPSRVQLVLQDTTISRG

GPR55 (HeLa cells) = assay: FITC-peptide binding to HeLa cells silenced for GPR55 (siRNA, shRNA) or re-expressing HA-GPR55 (FACS); set-up: species or system human; details: 40 μg/ml, 1 h at 37°C
Protocol: For transient interference of GPR55, HeLa cells were plated at 150,000 cells/6-well plate in growth medium without antibiotics, and 24 h later they were transfected with 75 pmol/well non-targeting #2 siRNA (siNT) or human GPR55-targeting siRNAs (D-00581-05) (siGPR55) (siGENOME, Dharmacon, Chicago, IL, USA), using Lipofectamine 2000, according to the manufacturer instructions. Twenty-four hours later, the cells were detached by trypsinization, plated again at 150,000 cells/6-well plate, and 10 h later they were re-transfected with siNT or with siGPR55. Forty-eight hours later, the cells were analyzed. For stable interference of GPR55, HeLa cells were transfected with 1.7 μg/well OmicsLink shRNA expression clone CSHCTR001-CU6 (shCtrl) or clone HSH022476-3-CU6 (shGPR55) from GeneCopoeia (Rockville, MD, USA), using Lipofectamine 2000, according to the manufacturer instructions. Forty-eight hours after transfection, HeLa clones stably expressing shRNAs were selected in growth medium containing 0.3 μg/ml puromycin.
Wild-type HeLa cells plated at a density of 150,000 cells/6-well plate, or cells stable interfered with shCtrl and shGPR55 plated at a density of 120,000 cells/6-well plate, or HeLa cells transiently interfered (48 h after the first interference) were washed twice with HBSS^++, and incubated with the indicated concentrations of the FITC-labeled peptides for the indicated times at 37°C in 1 ml HBSS^++ plus 0.1% fatty-acid-free BSA and 25 mM HEPES, pH 7.5. Then, the cells were washed twice with PBS plus 0.01% Tween-20, and once with PBS, and incubated for 5 min at 37°C with PBS with 2 mM EDTA, detached by scraping, and resuspended in PBS plus 3% BSA. Cell-associated FITC fluorescence was evaluated using FACS, after addition of 4 μg/ml propidium iodide, to exclude dead cells from the FACS gating. Fluorescence intensity was evaluated as % FITC-positive cells and mean fluorescence, recorded before (for peptide binding) and after (for peptide internalization) addition of 0.2% trypan blue to quench the fluorescence of the extracellular bound peptides.

HA-GPR55 = assay: confocal co-localization of FITC-P1 with HA-GPR55 in HeLa cells; type: cell-based, human; details: 40 μg/ml (26.8 μM) FITC-P1, 1 h, live HeLa cells overexpressing HA-GPR55
Protocol: HEK293 or CHO cells were rinsed with PBS, fixed for 10 min at room temperature in 4% (v/v) paraformaldehyde, and permeabilized in 0.02% saponin, 0.5% BSA, and 50 mM ammonium chloride in PBS (blocking solution). Then, the cells were stained with an anti-HA antibody (1:1,000) for 1 h at room temperature for GPR55 visualization, followed by 30 min at room temperature with Alexa488- or Alexa568-conjugated anti-mouse secondary antibodies (1:800), with 33 nM Alexa546-labeled phalloidin (Life Technologies) for filamentous actin visualization, or 2 μg/ml Hoechst (Sigma) for nuclei staining, with all reagents diluted in blocking solution. Then, the cells were washed three times with PBS plus 0.02% Tween-20, and the coverslips were mounted and examined by confocal microscope (LSM 510; Zeiss, Germany), with images acquired using the ZEN 2.1 (black) program (Carl Zeiss Microscopy GmbH 1997-2015). For localization studies of FITC-P1 and GPR55 in live HeLa cells, the cells were incubated with an anti-HA antibody (1:1,000) in PBS plus 3% BSA for 1 h on ice, then washed with PBS, and incubated with an Alexa568-conjugated anti-mouse secondary antibody (1:800) in PBS plus 3% BSA for 45 min on ice. The cells were then incubated with FITC-P1 as reported, fixed for 10 min in 4% (v/v) paraformaldehyde, and examined by confocal microscopy, as above.

EHEB cells [2] = assay: growth of EHEB cells (cell counting); type: cell-based, human; details: ML-191 0.5 μM, 96 h
Protocol: (§1) HEK293 cells were bought in 2012, from the American Type Culture Collection (ATCC catalogue number: CRL-11268), and were grown in monolayers in DMEM supplemented with 10% FBS, 2 mM L-glutamine, 100 U/ml penicillin, and 100 μg/ml streptomycin. HeLa cells were received from Dr. D. Corda, Institute of Protein Biochemistry, CNR, Naples, which were bought in 2006 from the European Collection of Cell Culture (ECACC catalog number: 93021013). Wild-type HeLa cells were maintained in MEM with 10% FBS, 2 mM L-glutamine, 100 U/ml penicillin, 100 μg/ml streptomycin, and nonessential amino acids (i.e., 100 μM glycine, L-alanine, L-asparagine, L-aspartic acid, L-glutamic acid, L-proline, L-serine). The HeLa clones were selected in the presence of 0.3 μg/ml puromycin. CHO cells were received from Dr. D. Corda, and were grown in DMEM supplemented with 10% FBS, 2 mM L-glutamine, 100 U/ml penicillin, 100 μg/ml streptomycin, and nonessential amino acids. EHEB cells are an Epstein-Barr-virus-immortalized cell line that was established from a chronic lymphocytic leukemia patient, and these were purchased from DSMZ (Deutsche Sammlung von Mikroorganismen und Zellkulturen GmbH, Braunschweig, Germany). DeFew cells are a non-Hodgkin lymphoma cell line, and these were obtained from Prof. G. Scala, ‘Magna Graecia’ University of Catanzaro [46–48]. Both of these human B-lymphoblastoid cell lines were maintained in RPMI 1640 with 10% heat-inactivated (30 min at 55°C) FBS, 2 mM L-glutamine, 100 U/ml penicillin, and 100 μg/ml streptomycin, and were routinely tested for BCR expression and anti-IgG stimulation, according to previous studies. All of the cells were grown in a humidified atmosphere of 5% CO2 and at 37°C return.
(§2) The EHEB cell growth rate was evaluated by cell counting. EHEB and DeFew cells were plated into 24-well plates in 400 μl growth medium at a density of 25,000 cells/ml. The cells were grown in the absence and presence of different agents, which were added immediately after cell plating and replenished every 24 h. Every 24 h, the cells were put through independent and blinded counts in triplicate, using a Neubauer cell-counting chamber. After 48 h, the cells were diluted 1:2 with fresh medium and 400 μl were transferred in a new 24-well for the following peptide additions. At 96 h, the cells were counted with 0.2% trypan blue, to determine cell viability.

DeFew cells = assay: growth of DeFew cells (cell counting); type: cell-based, human; details: ML-191 0.5 μM, 96 h
Protocol: as §1, §2

EHEB cells [3] = assay: annexin-V staining of EHEB cells (FACS); type: cell-based, human; details: biotinylated P1 1 μg/ml alone or streptavidin-bound; ML-191 0.5 μM
Excerpt: In parallel, for analysis of apoptosis markers, 200,000 cells/sample were harvested, washed in PBS, stained with fluorescent annexin V using human annexin V-FITC kits (Bender MedSystems GmbH, Vienna, Austria), according to the manufacturer instructions, and analyzed by FACS.

Row | SMILES | binding to glycosylated versus deglycosylated GPR55 [1] | decrease in binding, siGPR55 relative to siNT (GPR55 (HeLa cells); 50% reduction in GPR55 expression, four independent experiments) [%] | less binding to shGPR55 HeLa clones relative to shCtrl (GPR55 (HeLa cells); 90% decrease in GPR55 mRNA, three independent experiments) [%] | increase in binding on GPR55 re-expression in shGPR55 clones versus empty vector (GPR55 (HeLa cells); three independent experiments) [%] | co-localization with GPR55 (HA-GPR55) | Cell counts/ml (EHEB cells [2]; replenished every 24 h, DMSO 801 ±18, means ±SEM, n = 4 in duplicate, p <0.01) | Growth inhibition (EHEB cells [2]; relative to DMSO-treated cells) | Cell counts/ml (DeFew cells; replenished every 24 h, DMSO 1053 ±41, means ±SEM, n = 4 in duplicate, p <0.01) | Growth inhibition (DeFew cells; relative to DMSO-treated cells) | annexin V cell decoration (EHEB cells [3])
1 | CC(C)C[C@@H]1NC(=O)[C@H]([C@@H](C)O)NC(=O)[C@@H]2CCCN2C(=O)[C@H](CO)NC(=O)[C@H](CC(N)=O)NC(=O)[C@H](CCCCN)NC(=O)[C@H](CCCCN)NC(=O)[C@@H](NC(=O)CCCCCNC(=S)Nc2ccc3c(c2)C(=O)OC32c3ccc(O)cc3Oc3cc(O)ccc32)CSSC[C@@H](C(=O)O)NC1=O [FITC-P1] ({FITC-Ahx}-CKKNSPTLC-OH; disulfide 1-9; N-terminus and C-terminus assumed) | bound equally to both glycosylated and deglycosylated GPR55-immunoprecipitates | 26 | 34 | 25 | distributed at the membrane level, with evident spots of co-localization | – | – | – | – | –
2 | Cc1ccc(C2(C(=O)N3CCC(n4nc(-c5ccccc5)oc4=O)CC3)CC2)cc1 [ML-191] | – | – | – | – | – | 578 ±49 ×1,000 | (28%) | 650 ±51 ×1,000 | (38%) | did not increase annexin V cell decoration, similar to ML-191
